Drawing on ChEMBL document CHEMBL4118156, “Design, synthesis and evaluation of vilazodone-tacrine hybrids as multitarget-directed ligands against depression with cognitive impairment” (Bioorg Med Chem, 2018), this text covers IC50, Papp and EC50 for 23 compounds.

Each structure is given as a SMILES string. Where only a bound is given, the exact number is not on record here.

One data set has as its target T1, Acetylcholinesterase (Rattus norvegicus, UniProt P37136).
T1 sequence (P37136 whole entry): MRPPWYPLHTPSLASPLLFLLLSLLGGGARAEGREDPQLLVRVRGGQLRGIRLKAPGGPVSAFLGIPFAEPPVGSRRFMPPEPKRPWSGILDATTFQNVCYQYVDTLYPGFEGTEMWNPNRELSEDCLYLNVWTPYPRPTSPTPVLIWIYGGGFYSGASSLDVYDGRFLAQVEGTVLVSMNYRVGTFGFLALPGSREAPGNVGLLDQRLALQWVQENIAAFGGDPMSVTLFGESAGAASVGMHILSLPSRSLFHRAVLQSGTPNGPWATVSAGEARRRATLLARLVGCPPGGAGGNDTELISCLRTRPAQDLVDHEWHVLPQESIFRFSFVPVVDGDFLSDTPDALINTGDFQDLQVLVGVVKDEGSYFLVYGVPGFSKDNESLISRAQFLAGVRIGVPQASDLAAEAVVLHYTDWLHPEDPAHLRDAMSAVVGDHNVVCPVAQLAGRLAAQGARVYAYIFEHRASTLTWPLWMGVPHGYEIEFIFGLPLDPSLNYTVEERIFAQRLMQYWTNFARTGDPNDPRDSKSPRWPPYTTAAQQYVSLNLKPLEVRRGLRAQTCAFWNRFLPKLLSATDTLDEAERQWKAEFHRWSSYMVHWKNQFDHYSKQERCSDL
The data set is described as follows: Inhibition of rat cortex AChE using acetylthiocholine iodide as substrate after 20 mins by Ellman's method.

The nature of data set [1]: in vitro. The following applies: PAMPA.
Description: Effective permeability of the compound in PBS/ethanol buffer after 12 hrs by PAMPA
In data set [2] the target is T2, 5-hydroxytryptamine receptor 1A (Homo sapiens, UniProt P08908).
T2 sequence (P08908 whole entry): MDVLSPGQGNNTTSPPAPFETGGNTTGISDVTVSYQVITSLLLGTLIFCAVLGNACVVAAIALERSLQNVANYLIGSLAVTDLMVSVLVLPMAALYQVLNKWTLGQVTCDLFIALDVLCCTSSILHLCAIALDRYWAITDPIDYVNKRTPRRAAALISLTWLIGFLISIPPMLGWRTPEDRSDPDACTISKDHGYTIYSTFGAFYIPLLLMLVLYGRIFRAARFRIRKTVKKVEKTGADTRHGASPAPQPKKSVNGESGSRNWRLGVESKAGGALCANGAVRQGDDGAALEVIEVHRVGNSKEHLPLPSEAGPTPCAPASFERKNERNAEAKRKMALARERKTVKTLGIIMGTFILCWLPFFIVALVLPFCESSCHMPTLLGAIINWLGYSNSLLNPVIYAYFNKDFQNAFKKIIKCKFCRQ
Description: Agonist activity at human 5-HT1A receptor expressed in HEK293 cells after 60 mins by Eu-cAMP solution based ultra LANCE assay

The target of data set [3] is T3, Butyrylcholinesterase (Rattus norvegicus, UniProt Q9JKC1).
Description: (§1) Inhibition of rat serum BChE using butyrylthiocholine iodide as substrate after 20 mins by Ellman's method
Data set [4] deals with Sodium-dependent serotonin transporter (Homo sapiens, UniProt P31645). Type of data set: cell-based, HEK293.
Description: Inhibition of SERT (unknown origin) expressed in HEK293 cells assessed as reduction in 5-HT uptake incubated for 30 mins
Data set [5] addresses T3, Butyrylcholinesterase. This is another data set of the same source.
Description: as §1
Data set [6] can be described thus: in vitro. The following applies: not told.
Description: Effective permeability of the compound in PBS/ethanol buffer

Sequence of Sodium-dependent serotonin transporter (P31645 whole entry): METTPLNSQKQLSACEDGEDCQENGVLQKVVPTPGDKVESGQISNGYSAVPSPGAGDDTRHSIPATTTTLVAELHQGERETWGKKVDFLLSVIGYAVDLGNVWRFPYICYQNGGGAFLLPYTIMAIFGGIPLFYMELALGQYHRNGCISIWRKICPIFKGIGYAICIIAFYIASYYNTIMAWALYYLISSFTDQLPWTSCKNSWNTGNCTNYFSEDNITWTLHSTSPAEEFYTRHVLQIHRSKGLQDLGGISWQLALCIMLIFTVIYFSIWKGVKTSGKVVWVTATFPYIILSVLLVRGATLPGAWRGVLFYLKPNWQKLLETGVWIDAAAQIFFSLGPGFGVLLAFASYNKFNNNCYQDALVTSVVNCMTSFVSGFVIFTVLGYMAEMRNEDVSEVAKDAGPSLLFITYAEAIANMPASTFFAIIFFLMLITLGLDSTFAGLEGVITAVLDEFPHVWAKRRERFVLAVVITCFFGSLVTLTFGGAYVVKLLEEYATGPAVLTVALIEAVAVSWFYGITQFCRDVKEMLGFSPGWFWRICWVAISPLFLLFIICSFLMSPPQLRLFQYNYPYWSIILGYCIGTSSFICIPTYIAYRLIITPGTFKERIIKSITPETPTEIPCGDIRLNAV
T3 sequence (Q9JKC1 whole entry): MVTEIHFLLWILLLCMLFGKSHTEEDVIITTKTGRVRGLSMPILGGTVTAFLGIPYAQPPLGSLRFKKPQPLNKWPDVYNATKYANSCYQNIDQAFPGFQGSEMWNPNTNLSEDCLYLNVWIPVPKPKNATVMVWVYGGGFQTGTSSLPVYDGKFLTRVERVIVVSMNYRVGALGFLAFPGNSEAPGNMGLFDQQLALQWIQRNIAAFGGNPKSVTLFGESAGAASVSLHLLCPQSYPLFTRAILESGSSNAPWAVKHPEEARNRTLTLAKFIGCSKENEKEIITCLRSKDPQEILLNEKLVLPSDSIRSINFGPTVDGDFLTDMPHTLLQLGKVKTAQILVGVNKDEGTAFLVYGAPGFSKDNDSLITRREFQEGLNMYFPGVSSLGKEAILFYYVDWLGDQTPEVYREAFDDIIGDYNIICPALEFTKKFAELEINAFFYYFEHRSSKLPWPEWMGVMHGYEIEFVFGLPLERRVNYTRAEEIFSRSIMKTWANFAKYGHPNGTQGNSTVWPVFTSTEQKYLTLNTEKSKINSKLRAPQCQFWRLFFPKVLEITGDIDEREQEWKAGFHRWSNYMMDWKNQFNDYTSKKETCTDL

Consider `N#Cc1ccc2[nH]cc(C(=O)CCCN3CCN(c4cccc5nc6c(c(N)c45)CCCC6)CC3)c2c1`, for which the IC50 (in general, the concentration at which inhibition is half-maximal) at Acetylcholinesterase (read-out: IC50) came to 1360 nM; on Butyrylcholinesterase [3], 390 nM. The Papp (usually a coefficient for how fast a substance crosses the barrier) at 12 h in the data set “in vitro [1]” came out at 1.33 ×10⁻⁶ cm/s. Also, the midpoint of the response in data set [2], the EC50, lay at 62.4 nM.

Regarding `N#Cc1ccc2[nH]cc(C(=O)CCCN3CCN(c4ccc5c(N)c6c(nc5c4)CCCC6)CC3)c2c1`, the IC50 at Acetylcholinesterase (read-out: IC50) came to 1980 nM; against Butyrylcholinesterase [3], 370 nM. The compound also registered an apparent permeability coefficient (Papp) at 12 h in “in vitro [1]” of 1.68 ×10⁻⁶ cm/s. Further, the EC50 (commonly the midpoint of the concentration-response curve) in data set [2] was found to be 567 nM.

Regarding `COC(=O)c1ccc2[nH]cc(CCCCN3CCN(c4cccc5nc6c(c(N)c45)CCCC6)CC3)c2c1`, the concentration for half-maximal inhibition (IC50) stood at 2220 nM on Acetylcholinesterase (read-out: IC50), 314 nM in data set [4] and 410 nM on Butyrylcholinesterase [3]. In the data set “in vitro [1]”, the apparent permeability (Papp) at 12 h turned out to be 6.22 ×10⁻⁶ cm/s. The compound also came in with an EC50 in data set [2] of less than 0.14 nM.

For `COc1ccc2[nH]cc(CCCCN3CCN(c4cccc5nc6c(c(N)c45)CCCC6)CC3)c2c1`, the figures for the half-inhibitory concentration (IC50) (on Acetylcholinesterase (read-out: IC50); in data set [4]; against Butyrylcholinesterase [3]) were 1620 nM, 229 nM and 400 nM, respectively. In the data set “in vitro [1]”, this compound came in with an apparent permeability coefficient (Papp) at 12 h of 4.53 ×10⁻⁶ cm/s. In addition, in data set [2], the concentration giving a half-maximal response (EC50) is less than 0.14 nM.

On to `N#Cc1ccc2[nH]cc(CCCCN3CCN(c4cccc5nc6c(c(N)c45)CCCC6)CC3)c2c1`, for which the values for the IC50 (on Acetylcholinesterase (read-out: IC50); in data set [4]; at Butyrylcholinesterase [3]) were 1720 nM, 20.4 nM and 340 nM, respectively. Also, the Papp at 12 h in the data set “in vitro [1]” stood at 5.11 ×10⁻⁶ cm/s. The 50% effective concentration (EC50) in data set [2] amounted to 0.36 nM.

Consider `N#Cc1ccc2[nH]cc(CCCCN3CCN(c4ccc5oc(C(N)=O)cc5c4)CC3)c2c1` [VILAZODONE], for which the concentration for half-maximal inhibition (IC50) at Acetylcholinesterase (read-out: IC50) was 21300 nM.

Consider `Nc1c2c(nc3cccc(N4CCN(CCCCc5c[nH]c6ccc(Br)cc56)CC4)c13)CCCC2`, for which the concentration for half-maximal inhibition (IC50) entry on Acetylcholinesterase and against Butyrylcholinesterase [5] was “Nd(Insoluble)” throughout. In addition, the Papp at 12 h in “in vitro [1]” came to 3.05 ×10⁻⁶ cm/s. This compound also had a half-maximal effective concentration (EC50) in data set [2] of 0.35 nM.

As for `Nc1c2c(nc3cccc(N4CCN(CCCCc5c[nH]c6ccccc56)CC4)c13)CCCC2`, the IC50 is 1440 nM on Acetylcholinesterase (read-out: IC50) and 390 nM against Butyrylcholinesterase [3]. The compound further displayed a Papp at 12 h in the data set “in vitro [1]” of 3.52 ×10⁻⁶ cm/s. In addition, in data set [2], the midpoint of the response, the EC50, lay at 1.2 nM.

As for `N#Cc1ccc2[nH]cc(CCCCN3CCN(c4ccc5nc6c(c(N)c5c4)CCCC6)CC3)c2c1`, the IC50 was determined as 10200 nM on Acetylcholinesterase (read-out: IC50) and 640 nM on Butyrylcholinesterase [3]. The same compound had a Papp at 12 h in the data set “in vitro [1]” of 3.55 ×10⁻⁶ cm/s. The compound further returned a half-maximal effective concentration (EC50) in data set [2] of 14.9 nM.

On to `Cc1ccc2[nH]cc(CCCCN3CCN(c4cccc5nc6c(c(N)c45)CCCC6)CC3)c2c1`, for which the IC50 is 1120 nM on Acetylcholinesterase (read-out: IC50) and 360 nM at Butyrylcholinesterase [3]. Besides, the apparent permeability (Papp) at 12 h in “in vitro [1]” worked out at 3.64 ×10⁻⁶ cm/s. Further, the EC50 in data set [2] was determined as 0.6 nM.

For `N#Cc1ccc2[nH]cc(C(=O)CCCN3CCN(c4ccc5nc6c(c(N)c5c4)CCCC6)CC3)c2c1`, the results for the IC50 on Acetylcholinesterase (read-out: IC50) and against Butyrylcholinesterase [3] were 2910 nM and 250 nM, respectively. In the data set “in vitro [1]”, this compound registered an apparent permeability coefficient (Papp) at 12 h of 1.04 ×10⁻⁶ cm/s. Also, the midpoint of the response in data set [2], the EC50, lay at 1560 nM.

As to `N#Cc1ccc2[nH]cc(CCCN3CCN(c4cccc5nc6c(c(N)c45)CCCC6)CC3)c2c1`, the concentration for half-maximal inhibition (IC50) on Acetylcholinesterase (read-out: IC50) was determined as 1820 nM; at Butyrylcholinesterase [3] it was 420 nM. In the data set “in vitro [1]”, this compound registered an apparent permeability (Papp) at 12 h of 5.46 ×10⁻⁶ cm/s. For the same compound, the midpoint of the response in data set [2], the EC50, lay at 52 nM.

Regarding `N#Cc1ccc2[nH]cc(CCN3CCN(c4cccc5nc6c(c(N)c45)CCCC6)CC3)c2c1`, the values for the IC50 at Acetylcholinesterase (read-out: IC50) and against Butyrylcholinesterase [3] were 2100 nM and 1130 nM, respectively. The compound further gave an apparent permeability (Papp) at 12 h in “in vitro [1]” of 4.48 ×10⁻⁶ cm/s. Besides, in data set [2], the EC50 is greater than 10000 nM.

As for `N#Cc1ccc2[nH]cc(CCCCN3CCN(c4cccc5nc6c(c(N)c45)CCCCC6)CC3)c2c1`, the figures for the IC50 at Acetylcholinesterase (read-out: IC50) and at Butyrylcholinesterase [3] were 18300 nM and 230 nM, respectively. The apparent permeability (Papp) at 12 h in the data set “in vitro [1]” amounted to 3.97 ×10⁻⁶ cm/s. The compound also returned an EC50 in data set [2] of 146 nM.

`N#Cc1ccc2[nH]cc(CCCCN3CCN(c4cccc5nc6c(c(N)c45)CCC6)CC3)c2c1`: the IC50 on Acetylcholinesterase (read-out: IC50) was 2360 nM; in data set [4], 22.1 nM; on Butyrylcholinesterase [3] it was 100 nM. In the data set “in vitro [1]”, the Papp at 12 h stood at 4.38 ×10⁻⁶ cm/s. The compound further returned an EC50 in data set [2] of 0.58 nM.

With `N#Cc1ccc2[nH]cc(CCCCN3CCN(c4ccc5c(N)c6c(nc5c4)CCCC6)CC3)c2c1`, the IC50 at Acetylcholinesterase (read-out: IC50) is 5100 nM; on Butyrylcholinesterase [3] it was 250 nM. This compound registered a Papp at 12 h in the data set “in vitro [1]” of 2.99 ×10⁻⁶ cm/s. The compound further gave a half-maximal effective concentration (EC50) in data set [2] of 28.8 nM.

With `CC(=O)Nc1c2c(nc3cccc(N4CCN(CCCCc5c[nH]c6ccc(C#N)cc56)CC4)c13)CCCC2`, the IC50 stood at 5610 nM at Acetylcholinesterase (read-out: IC50) and 2920 nM at Butyrylcholinesterase [3]. The compound further yielded an apparent permeability coefficient (Papp) at 12 h in the data set “in vitro [1]” of 1.92 ×10⁻⁶ cm/s. Further, in data set [2], a half-maximal effect (EC50) was put at 93.4 nM.

For the compound `CC1COc2c(N3CCN(C)CC3)c(F)cc3c2N1CC(C(=O)O)C3=O` (stereo not drawn), the Papp in “in vitro [6]” worked out at 0.8 ×10⁻⁶ cm/s. In the data set “in vitro [1]”, this compound had an apparent permeability coefficient (Papp) at 12 h of 0.4 ×10⁻⁶ cm/s.

As to `Nc1c2c(nc3cccc(N4CCN(CCCCc5c[nH]c6ccc(Cl)cc56)CC4)c13)CCCC2`, the half-inhibitory concentration (IC50) result on Acetylcholinesterase and on Butyrylcholinesterase [5] was “Nd(Insoluble)” in each case. In addition, the Papp at 12 h in “in vitro [1]” was determined as 2.74 ×10⁻⁶ cm/s. The 50% effective concentration (EC50) in data set [2] was 0.75 nM.

Consider `N#Cc1ccc2[nH]cc(C(=O)CCCN3CCN(c4cccc5c(N)c6c(nc45)CCCC6)CC3)c2c1`, for which the half-inhibitory concentration (IC50) on Acetylcholinesterase (read-out: IC50) is 3310 nM; on Butyrylcholinesterase [3], 1850 nM. The Papp at 12 h in “in vitro [1]” worked out at 1.61 ×10⁻⁶ cm/s. Besides, the EC50 in data set [2] amounted to 35 nM.

`COc1ccc(CCN2CCC(Nc3nc4ccccc4n3Cc3ccc(F)cc3)CC2)cc1` [ASTEMIZOLE] had a Papp in “in vitro [6]” of 11 ×10⁻⁶ cm/s.

With `N#Cc1ccc2[nH]cc(CCCCN3CCN(c4cccc5c(N)c6c(nc45)CCCC6)CC3)c2c1`, the IC50 amounted to 2330 nM at Acetylcholinesterase (read-out: IC50) and 310 nM on Butyrylcholinesterase [3]. This compound also displayed a Papp at 12 h in “in vitro [1]” of 4.43 ×10⁻⁶ cm/s. In addition, the EC50 in data set [2] came to 1.55 nM.

Consider `Nc1c2c(nc3cccc(N4CCN(CCCCc5c[nH]c6ccc(F)cc56)CC4)c13)CCCC2`, for which the half-maximal inhibitory concentration (IC50) entry on Acetylcholinesterase and on Butyrylcholinesterase [5] was “Nd(Insoluble)” each time. The apparent permeability (Papp) at 12 h in “in vitro [1]” was determined as 3.76 ×10⁻⁶ cm/s. This compound also displayed a half-maximal effective concentration (EC50) in data set [2] of 0.72 nM.
